{"source": "patent US20220193081A1", "about": "(Ellamed IP & Services PTE. LTD., priority 2019, published 2022)", "key": {"[1]": {"assay": "HPLC assay on storage of sildenafil citrate in buffered 60% aqueous ethanol (Example 4)", "type": "physicochemical", "details": "pH 5.5, NaOH", "procedure": "Before being placed on storage, and at time points 7 and 42 days, the concentration of sildenafil in the mixtures were assayed using HPLC. The samples were then stored at either −20° C., 2-8° C. or 25° C. for periods of up to 42 days. Periodically, the samples were visually inspected for evidence of crystallization."}, "[2]": {"assay": "Extended stability in buffered 50% ethanol, HPLC assay of sildenafil and impurities (Example 6)", "type": "physicochemical", "procedure": "Before being placed on storage in glass vials, plastic containers or Easysnap® blisters, and at time points up to 160 days, the concentration of sildenafil and its impurities in the mixtures were assayed using HPLC. The samples were then stored at 25° C./60% RH, 30° C./65% RH or 40° C./75% RH for periods of up to 160 days. The results of the assays are shown in Table 10 (sildenafil), Table 11 (Impurity B) and Table 12 (Impurity D)."}, "[3]": {"details": "Easysnap ®, 25° C./60% RH, Day 32"}, "[4]": {"details": "Easysnap ®, 25° C./60% RH, Day 80"}, "[5]": {"details": "Easysnap ®, 25° C./60% RH, Day 159"}, "[6]": {"details": "Easysnap ®, 30° C./65% RH, Day 32"}, "[7]": {"details": "Easysnap ®, 40° C./75% RH, Day 32"}, "[8]": {"details": "plastic, 25° C./60% RH, Day 159"}}}
{"smiles": "CCCc1nn(C)c2c(=O)nc(-c3cc(S(=O)(=O)N4CCN(C)CC4)ccc3OCC)[nH]c12.O=C(O)CC(O)(CC(=O)O)C(=O)O", "note": "[sildenafil citrate, 1-[[3-(4,7-Dihydro-1-methyl-7-oxo-3-propyl-1H-pyrazolo[4,3-d]pyrimidin-5-yl)-4-ethoxyphenyl]sulfonyl]-4-methylpiperazine citrate salt]", "values": [{"measurement": "concentration of sildenafil by HPLC", "setting": "[1]; 18 mg/ml, with sucralose, 2-8 ° C., Day 7", "result": 18550, "unit": "µg/mL"}, {"measurement": "concentration of sildenafil by HPLC", "setting": "[1]; 18 mg/ml, with sucralose, 2-8 ° C., Day 42", "result": 15240, "unit": "µg/mL"}, {"measurement": "concentration of sildenafil by HPLC", "setting": "[1]; 18 mg/ml, with sucralose, 25 ° C., Day 7", "result": 18000, "unit": "µg/mL"}, {"measurement": "concentration of sildenafil by HPLC", "setting": "[1]; 18 mg/ml, with sucralose, 25 ° C., Day 42", "result": 17940, "unit": "µg/mL"}, {"measurement": "concentration of sildenafil by HPLC", "setting": "[1]; 18 mg/ml, with sucralose, Day 0", "result": 17560, "unit": "µg/mL"}, {"measurement": "concentration of sildenafil by HPLC", "setting": "[1]; 18 mg/ml, without sucralose, 2-8 ° C., Day 7", "result": 18330, "unit": "µg/mL"}, {"measurement": "concentration of sildenafil by HPLC", "setting": "[1]; 18 mg/ml, without sucralose, 2-8 ° C., Day 42", "result": 15230, "unit": "µg/mL"}, {"measurement": "concentration of sildenafil by HPLC", "setting": "[1]; 18 mg/ml, without sucralose, 25 ° C., Day 7", "result": 18080, "unit": "µg/mL"}, {"measurement": "concentration of sildenafil by HPLC", "setting": "[1]; 18 mg/ml, without sucralose, 25 ° C., Day 42", "result": 17190, "unit": "µg/mL"}, {"measurement": "concentration of sildenafil by HPLC", "setting": "[1]; 18 mg/ml, without sucralose, Day 0", "result": 17420, "unit": "µg/mL"}, {"measurement": "concentration of sildenafil by HPLC", "setting": "[1]; 21 mg/ml, without sucralose, 2-8 ° C., Day 7", "result": 22110, "unit": "µg/mL"}, {"measurement": "concentration of sildenafil by HPLC", "setting": "[1]; 21 mg/ml, without sucralose, 2-8 ° C., Day 42", "result": 13780, "unit": "µg/mL"}, {"measurement": "concentration of sildenafil by HPLC", "setting": "[1]; 21 mg/ml, without sucralose, 25 ° C., Day 7", "result": 20400, "unit": "µg/mL"}, {"measurement": "concentration of sildenafil by HPLC", "setting": "[1]; 21 mg/ml, without sucralose, 25 ° C., Day 42", "result": 19610, "unit": "µg/mL"}, {"measurement": "concentration of sildenafil by HPLC", "setting": "[1]; 21 mg/ml, without sucralose, Day 0", "result": 20520, "unit": "µg/mL"}, {"measurement": "sildenafil assay", "setting": "[2]; 20 mg/ml with sucralose 1 mg/ml, monoammonium glycyrrhizinate 1 mg/ml, eucalyptus-menthol 3 mg/ml, Day 0, before storage", "result": 102.02, "unit": "% LS"}, {"measurement": "Impurity B", "setting": "[2]; [3]", "result": 0.09, "unit": "% RS"}, {"measurement": "Impurity D", "setting": "[2]; [3]", "result": 0.030, "unit": "% RS"}, {"measurement": "sildenafil assay", "setting": "[2]; [3]", "result": 100.87, "unit": "% LS"}, {"measurement": "Impurity B", "setting": "[2]; [4]", "result": 0.11, "unit": "% RS"}, {"measurement": "Impurity D", "setting": "[2]; [4]", "result": 0.030, "unit": "% RS"}, {"measurement": "sildenafil assay", "setting": "[2]; [4]", "result": 101.53, "unit": "% LS"}, {"measurement": "Impurity B", "setting": "[2]; [5]", "result": 0.20, "unit": "% RS"}, {"measurement": "Impurity D", "setting": "[2]; [5]", "result": 0.034, "unit": "% RS"}, {"measurement": "sildenafil assay", "setting": "[2]; [5]", "result": 100.91, "unit": "% LS"}, {"measurement": "Impurity B", "setting": "[2]; [6]", "result": 0.10, "unit": "% RS"}, {"measurement": "Impurity D", "setting": "[2]; [6]", "result": 0.030, "unit": "% RS"}, {"measurement": "sildenafil assay", "setting": "[2]; [6]", "result": 100.85, "unit": "% LS"}, {"measurement": "Impurity B", "setting": "[2]; [7]", "result": 0.20, "unit": "% RS"}, {"measurement": "Impurity D", "setting": "[2]; [7]", "result": 0.030, "unit": "% RS"}, {"measurement": "sildenafil assay", "setting": "[2]; [7]", "result": 101.46, "unit": "% LS"}, {"measurement": "Impurity B", "setting": "[2]; glass, 25° C./60% RH, Day 32", "result": 0.07, "unit": "% RS"}, {"measurement": "Impurity D", "setting": "[2]; glass, 25° C./60% RH, Day 32", "result": 0.030, "unit": "% RS"}, {"measurement": "sildenafil assay", "setting": "[2]; glass, 25° C./60% RH, Day 32", "result": 100.76, "unit": "% LS"}, {"measurement": "Impurity B", "setting": "[2]; glass, 25° C./60% RH, Day 80", "result": 0.10, "unit": "% RS"}, {"measurement": "Impurity D", "setting": "[2]; glass, 25° C./60% RH, Day 80", "result": 0.030, "unit": "% RS"}, {"measurement": "sildenafil assay", "setting": "[2]; glass, 25° C./60% RH, Day 80", "result": 101.47, "unit": "% LS"}, {"measurement": "Impurity B", "setting": "[2]; glass, 25° C./60% RH, Day 159", "result": 0.17, "unit": "% RS"}, {"measurement": "Impurity D", "setting": "[2]; glass, 25° C./60% RH, Day 159", "result": 0.038, "unit": "% RS"}, {"measurement": "sildenafil assay", "setting": "[2]; glass, 25° C./60% RH, Day 159", "result": 100.68, "unit": "% LS"}, {"measurement": "Impurity B", "setting": "[2]; glass, 30° C./65% RH, Day 32", "result": 0.10, "unit": "% RS"}, {"measurement": "Impurity D", "setting": "[2]; glass, 30° C./65% RH, Day 32", "result": 0.030, "unit": "% RS"}, {"measurement": "sildenafil assay", "setting": "[2]; glass, 30° C./65% RH, Day 32", "result": 100.46, "unit": "% LS"}, {"measurement": "Impurity B", "setting": "[2]; glass, 40° C./75% RH, Day 32", "result": 0.17, "unit": "% RS"}, {"measurement": "Impurity D", "setting": "[2]; glass, 40° C./75% RH, Day 32", "result": 0.030, "unit": "% RS"}, {"measurement": "sildenafil assay", "setting": "[2]; glass, 40° C./75% RH, Day 32", "result": 100.39, "unit": "% LS"}, {"measurement": "Impurity B", "setting": "[2]; glass, 40° C./75% RH, Day 159", "result": 0.45, "unit": "% RS"}, {"measurement": "Impurity D", "setting": "[2]; glass, 40° C./75% RH, Day 159", "result": 0.039, "unit": "% RS"}, {"measurement": "sildenafil assay", "setting": "[2]; glass, 40° C./75% RH, Day 159", "result": 100.60, "unit": "% LS"}, {"measurement": "Impurity B", "setting": "[2]; plastic, 25° C./60% RH, Day 32", "result": 0.08, "unit": "% RS"}, {"measurement": "Impurity D", "setting": "[2]; plastic, 25° C./60% RH, Day 32", "result": 0.040, "unit": "% RS"}, {"measurement": "sildenafil assay", "setting": "[2]; plastic, 25° C./60% RH, Day 32", "result": 100.42, "unit": "% LS"}, {"measurement": "Impurity B", "setting": "[2]; plastic, 25° C./60% RH, Day 80", "result": 0.09, "unit": "% RS"}, {"measurement": "Impurity D", "setting": "[2]; plastic, 25° C./60% RH, Day 80", "result": 0.030, "unit": "% RS"}, {"measurement": "sildenafil assay", "setting": "[2]; plastic, 25° C./60% RH, Day 80", "result": 101.59, "unit": "% LS"}, {"measurement": "Impurity B", "setting": "[2]; [8]", "result": 0.16, "unit": "% RS"}, {"measurement": "Impurity D", "setting": "[2]; [8]", "result": 0.033, "unit": "% RS"}, {"measurement": "sildenafil assay", "setting": "[2]; [8]", "result": 101.19, "unit": "% LS"}, {"measurement": "Impurity B", "setting": "[2]; plastic, 30° C./65% RH, Day 32", "result": 0.09, "unit": "% RS"}, {"measurement": "Impurity D", "setting": "[2]; plastic, 30° C./65% RH, Day 32", "result": 0.030, "unit": "% RS"}, {"measurement": "sildenafil assay", "setting": "[2]; plastic, 30° C./65% RH, Day 32", "result": 100.79, "unit": "% LS"}, {"measurement": "Impurity B", "setting": "[2]; plastic, 40° C./75% RH, Day 32", "result": 0.17, "unit": "% RS"}, {"measurement": "Impurity D", "setting": "[2]; plastic, 40° C./75% RH, Day 32", "result": 0.030, "unit": "% RS"}, {"measurement": "sildenafil assay", "setting": "[2]; plastic, 40° C./75% RH, Day 32", "result": 100.76, "unit": "% LS"}]}
